Measurements: ChEMBL document CHEMBL5715954, “Silencing c-Myc translation as a therapeutic strategy through targeting PI3Kδ and CK1ε in hematological malignancies” (Blood, 2017)

Tests used:
Design in all cases: scale not given: the % may be the effect or the level left
[1] = biological target: T1, Phosphorylase b kinase gamma catalytic chain, liver/testis isoform (Homo sapiens) (UniProt P15735); assay: Inhibition of human PHKg2 assessed as enzyme activity at 1 uM using KKLNRTLSFAEPG as substrate preincubated for 20 mins followed by [gamma-33P]-ATP addition and measured after 120 mins by radiometric Hot-SpotSM Kinase assay relative to control
T1 sequence (whole entry): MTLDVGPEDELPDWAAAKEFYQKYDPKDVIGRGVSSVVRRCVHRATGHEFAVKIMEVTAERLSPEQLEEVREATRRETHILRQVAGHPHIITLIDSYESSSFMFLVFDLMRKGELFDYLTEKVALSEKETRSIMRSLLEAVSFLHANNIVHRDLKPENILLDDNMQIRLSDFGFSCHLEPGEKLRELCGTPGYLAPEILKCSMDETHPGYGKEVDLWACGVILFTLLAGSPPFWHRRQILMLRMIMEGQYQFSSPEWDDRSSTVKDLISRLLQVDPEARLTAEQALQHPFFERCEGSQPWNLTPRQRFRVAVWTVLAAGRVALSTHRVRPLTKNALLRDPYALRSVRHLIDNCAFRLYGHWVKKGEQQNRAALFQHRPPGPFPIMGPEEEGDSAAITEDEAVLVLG

[2] = biological target: Tyrosine-protein kinase BTK (Homo sapiens) (UniProt Q06187); assay: Inhibition of human BTK assessed as enzyme activity at 1 uM using poly[Glu:Tyr] (4:1) as substrate preincubated for 20 mins followed by [gamma-33P]-ATP addition and measured after 120 mins by radiometric Hot-SpotSM Kinase assay relative to control
[3] = biological target: Mitogen-activated protein kinase 3 (Homo sapiens) (UniProt P27361); assay: Inhibition of human ERK1 assessed as enzyme activity at 1 uM using myelin basic protein as substrate preincubated for 20 mins followed by [gamma-33P]-ATP addition and measured after 120 mins by radiometric Hot-SpotSM Kinase assay relative to control
[4] = biological target: Death-associated protein kinase 2 (Homo sapiens) (UniProt Q9UIK4); assay: Inhibition of human DAPK2 assessed as enzyme activity at 1 uM using KKLNRTLSFAEPG as substrate preincubated for 20 mins followed by [gamma-33P]-ATP addition and measured after 120 mins by radiometric Hot-SpotSM Kinase assay relative to control
[5] = biological target: Serine/threonine-protein kinase PAK 2 (Homo sapiens) (UniProt Q13177); assay: Inhibition of human PAK2 assessed as enzyme activity at 1 uM using RRRLSFAEPG as substrate preincubated for 20 mins followed by [gamma-33P]-ATP addition and measured after 120 mins by radiometric Hot-SpotSM Kinase assay relative to control
[6] = biological target: TRAF2 and NCK-interacting protein kinase (Homo sapiens) (UniProt Q9UKE5); assay: Inhibition of human TNIK assessed as enzyme activity at 1 uM using RLGRDKYKTLRQIRQ as substrate preincubated for 20 mins followed by [gamma-33P]-ATP addition and measured after 120 mins by radiometric Hot-SpotSM Kinase assay relative to control
[7] = biological target: Serine/threonine-protein kinase Nek6 (Homo sapiens) (UniProt Q9HC98); assay: Inhibition of human NEK6 assessed as enzyme activity at 1 uM using casein as substrate preincubated for 20 mins followed by [gamma-33P]-ATP addition and measured after 120 mins by radiometric Hot-SpotSM Kinase assay relative to control
[8] = biological target: Vascular endothelial growth factor receptor 2 (Homo sapiens) (UniProt P35968); assay: Inhibition of human KDR assessed as enzyme activity at 1 uM using poly[Glu:Tyr] (4:1) as substrate preincubated for 20 mins followed by [gamma-33P]-ATP addition and measured after 120 mins by radiometric Hot-SpotSM Kinase assay relative to control
[9] = biological target: T2, Myosin light chain kinase (Homo sapiens) (UniProt Q32MK0); assay: Inhibition of human MYLK3 assessed as enzyme activity at 1 uM using KKRPQRRYSNVF as substrate preincubated for 20 mins followed by [gamma-33P]-ATP addition and measured after 120 mins by radiometric Hot-SpotSM Kinase assay relative to control
T2 sequence (whole entry): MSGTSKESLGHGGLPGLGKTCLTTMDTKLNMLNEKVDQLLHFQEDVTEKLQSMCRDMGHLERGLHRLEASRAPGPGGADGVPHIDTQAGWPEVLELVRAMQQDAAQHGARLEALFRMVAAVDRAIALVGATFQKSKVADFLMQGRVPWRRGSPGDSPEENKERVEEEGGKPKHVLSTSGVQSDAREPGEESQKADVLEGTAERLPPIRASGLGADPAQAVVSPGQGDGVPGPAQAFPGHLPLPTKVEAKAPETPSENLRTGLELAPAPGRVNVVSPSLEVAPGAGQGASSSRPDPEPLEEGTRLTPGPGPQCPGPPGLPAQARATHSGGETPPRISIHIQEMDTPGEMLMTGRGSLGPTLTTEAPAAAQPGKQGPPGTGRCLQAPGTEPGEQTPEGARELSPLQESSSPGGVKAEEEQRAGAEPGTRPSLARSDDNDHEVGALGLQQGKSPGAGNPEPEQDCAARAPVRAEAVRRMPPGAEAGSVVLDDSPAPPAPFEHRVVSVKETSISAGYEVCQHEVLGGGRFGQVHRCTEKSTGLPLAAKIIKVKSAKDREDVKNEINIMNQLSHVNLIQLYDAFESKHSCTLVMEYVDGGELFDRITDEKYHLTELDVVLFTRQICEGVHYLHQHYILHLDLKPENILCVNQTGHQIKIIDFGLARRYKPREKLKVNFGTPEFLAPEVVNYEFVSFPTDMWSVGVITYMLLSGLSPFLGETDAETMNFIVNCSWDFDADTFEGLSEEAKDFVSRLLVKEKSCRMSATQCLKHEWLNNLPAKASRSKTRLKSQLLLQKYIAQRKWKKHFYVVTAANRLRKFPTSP

[10] = biological target: Calcium/calmodulin-dependent protein kinase type II subunit delta (Homo sapiens) (UniProt Q13557); assay: Inhibition of human CAMK2d assessed as enzyme activity at 1 uM using KKLNRTLSFAEPG as substrate preincubated for 20 mins followed by [gamma-33P]-ATP addition and measured after 120 mins by radiometric Hot-SpotSM Kinase assay relative to control
[11] = biological target: Proto-oncogene tyrosine-protein kinase Src (Homo sapiens) (UniProt P12931); assay: Inhibition of human c-Src assessed as enzyme activity at 1 uM using poly[Glu:Tyr] (4:1) as substrate preincubated for 20 mins followed by [gamma-33P]-ATP addition and measured after 120 mins by radiometric Hot-SpotSM Kinase assay relative to control
[12] = biological target: CDK4/Cyclin D3 (Homo sapiens) (UniProt P11802+P30281); assay: Inhibition of human CDK4/cyclin D3 assessed as enzyme activity at 1 uM using RB-CTF as substrate preincubated for 20 mins followed by [gamma-33P]-ATP addition and measured after 120 mins by radiometric Hot-SpotSM Kinase assay relative to control; format: protein-complex assay

Compound	Activity [1]	Activity [2]	Activity [3]	Activity [4]	Activity [5]	Activity [6]	Activity [7]	Activity [8]	Activity [9]	Activity [10]	Activity [11]	Activity [12]
C[C@H](Nc1ncnc2nc[nH]c12)c1cc2cccc(Cl)c2c(=O)n1-c1ccccc1	102%	98.7%	95.9%	103%	100%	99.7%	92.6%	95.9%	98.2%	104%	86.7%	97.5%
CC[C@H](Nc1ncnc2[nH]cnc12)c1nc2cccc(F)c2c(=O)n1-c1ccccc1	89.1%	97.3%	96%	106%	103%	94.5%	93.2%	97.7%	91.8%	107%	85.2%	99.3%
CC(C)Oc1ccc(-c2nn([C@@H](C)c3oc4ccc(F)cc4c(=O)c3-c3cccc(F)c3)c3ncnc(N)c23)cc1F [UMBRALISIB]	95.4%	96.8%	95.8%	97.9%	96.8%	97.7%	97.7%	101%	105%	103%	87.6%	98.8%
